The values that follow come from patent publication US6974871B2, “Dequalinium analogs” (priority 2000, dated 2005).

As usually defined, the inhibition is the change of the read-out against control, counted positive when it falls.

One experiment addresses T1, Recombinant human PKCα (Homo sapiens, UniProt P17252).
T1 construct: purchased PanVera Corp., Madison, Wis
Nature of the experiment: Assay of PKCα catalytic activity in vitro. It is filed as biochemical. To be noted: for IC50: reversible binding conditions, average of two or more independent experiments (± s.d.), read-out: IC50 (analogue concentration producing 50% inhibition of PKCα activity); for fold stronger inhibitory potency compared with C6-DECA (1a): IC50 ratio versus 1a; for fold stronger inhibitory potency than 1c: IC50 ratio versus 1c (C10-DECA). How it is done: Assay of PKCα Catalytic Activity In Vitro
(§1) Recombinant human PKCα (>95% pure) (PanVera Corp., Madison, Wis.) was used for testing DECA analogues in vitro. Total PKCα catalytic activity (36 ng protein) and the indicated concentration of DECA analogue was measured in triplicate in the presence of activating cofactors (10 μg phosphatidylserine, 0.5 mM Ca^2+) by the transfer of ^32P from [γ-^32P]-ATP to the modified pseudosubstrate peptide (RFARKGSLRQKNV), as described elsewhere^1. For assay of partially purified B16 F10 cell lysates (25 μg/assay), PKC activity was taken as the difference in phosphotransferase activity measured in triplicate in the presence and absence of activating cofactors (10 μg phosphatidylserine, 0.5 mM Ca^2+) as previously described^2.

The target in experiment [1] is cAMP-dependent protein kinase (PKA) (Homo sapiens, UniProt P17612). Nature of the experiment: Inhibition of homologous protein kinase PKA. It is filed as biochemical. The following applies: micromolar concentrations.
Experiment [2] deals with calmodulin-dependent myosin light chain kinase. Nature of the experiment: Inhibition of homologous protein kinase MLCK. It counts as biochemical. To be noted: micromolar concentrations.
A further experiment deals with T2, intracellular PKCα (Mus musculus, UniProt P20444).
T2 construct: endogenous in cells; host or cells: murine melanoma B16 F10 cells
Kind of experiment: Photoinduced inactivation of intracellular PKC activity in melanoma cells (DECA analogue plus longwave UV). It counts as cell-based, murine. To be noted: B16 F10 cells; for inhibition at 0.25 µM: 250 nM, 1 h, plus UV irradiation 5 min. How it is done:
as §1
Inactivation of PKCα in Murine Melanoma Cells with Ultraviolet Radiation and DECA Analogues
Murine melanoma B16 F10 cells were cultured in 15 cm^2 dishes to 75-80% confluence in RPMI medium containing 10% fetal bovine serum, 1% penicillin/streptomycin, and 0.125 μg/ml fungizone. Prior to drug application, cells were washed twice with phosphate buffered saline (PBS) and were restored in serum-free medium containing either DMSO (0.1% v/v) or 250 nM C12-, C14-, or C16-DECA analogue. Monolayers of cells were treated with or without the indicated DECA analogue for 1 h and irradiated for 5-min (1200 μW/cm^2) with a UV lamp (American Ultraviolet Co., Murray Hill, N.J.). Following this treatment, the medium was removed and the cells were washed twice with PBS. Preparation of cell lysates was followed by partial purification by DEAE-Sephacel chromatography, as previously described^2.
(§2) A confluent monolayer of cells was washed twice with PBS and the indicated concentration of DECA analogue was added to the cells in serum-free medium. Cells were treated with or without the drug for 1 h at 37° C., 5% CO2, followed by washing with PBS. In PBS and with the lids off, cells were irradiated with longwave UV light for 5-min (1200 μW/cm^2). […]

The subject of experiment [3] is murine melanoma B16 F10 cells. Kind of experiment: Cell migration in transwell (Boyden chamber). It is filed as cell-based. To be noted: for inhibition of cell migration: 250 nM plus UV 5 min, initial 3 h post-treatment, Boyden chamber. How it is done: A 12-mm Costar transwell (Boyden chamber) having a 12-μm pore size was used to measure cell movement across a porous polycarbonate membrane. The bottom surface was coated with 35 μg Matrigel for 1 h at 37° C., 5% CO2. Cells were seeded into the upper chamber of the transwell at 10^5 cells/well and incubated at 37° C., 5% CO2. Following incubation for 3 h, the upper chamber was carefully wiped with a cotton swab in order to remove cells that remained on the upper membrane surface. Those cells that had migrated to the lower membrane surface were fixed and stained by the H+E Method (Fisher Diagnostics Leukostat). By use of a Nikon Diaphot-TMD inverted microscope at 400× magnification, eight fields of adherent cells were randomly counted in each well and numerically averaged. Each condition was conducted in triplicate and statistical significance was determined by ANOVA using SigmaStat software.
Inhibition of cell migration by 250 nM DECA analogues (C10-(control), C12-, and C14-DECA) was analyzed during the initial 3 h post-treatment by the use of Boyden chambers. Cells that had been treated with a DECA analogue plus UV were applied to the upper surface of the membrane whereupon they moved chemotactically through the membrane, and adhered to Matrigel, which had been coated onto the under surface of the membrane. Following the initial 3 h, the number of cells migrating to this lower surface was measured.
as §2, with “μW/cm^2). Irradiation was carried out with a longwave UV lamp (American Ultraviolet Co., Murray Hill, N.J.) while the plate of cells were subjected to gentle shaking at room temperature. Following this treatment, the medium was removed and the cells were washed twice with PBS.” for “μW/cm^2).”

Experiment [4] relates to murine melanoma B16 F10 cells. Nature of the experiment: Time-lapse cell motility (scratch wound) assay. It is filed as cell-based. To be noted: 250 nM plus UV 5 min. How it is done:
To measure cell motility by digital image capture, an Olympus IMT-2 inverted phase contrast microscope (Olympus Microscopes, UK), fitted with a Fujitsu TC2-336P CCD camera (EOS Electronics AV Ltd, Barry, Wales) and surrounded by a perspex temperature-regulated jacket that was adjusted to 37° C. Cells were plated onto 3-cm^2 petri dishes such that a densely confluent monolayer was achieved within 24 or 48 h. Following treatment of cells with C10-DECA and UV, a ‘scratch wound’ was created by drawing a sterile micro-pipette tip along the monolayer using a ruler as a guide. Detached cells were removed by washing twice in growth medium before adding 2 ml fresh medium. […] The chamber was gassed with 10% CO2 in humidified air and was placed onto the stage of the microscope. A regular wound edge was chosen and digital images were collected every 30 min for 8 h onto a Power Mac 7100 using Adobe Premier software. The percentage of the capture window (determined as 726 μm×544 μm) that had been filled in by the movement of cells (normalized to the original wound edge) was determined with Optilab software and plotted against time.
A confluent monolayer of cells was washed twice with PBS and the indicated concentration of DECA analogue was added to the cells in serum-free medium. Cells were treated with or without the drug for 1 h at 37° C., 5% CO2, followed by washing with PBS. […]

In experiment [5] the target is protein kinase C (PKC) isoforms (e.g., α, β1). The following applies: several isoforms (e.g., α, β1); read-out: IC50 for PKC isoforms in vitro; cited from earlier work.
Experiment [6] concerns the target pp60src tyrosine protein kinase (Homo sapiens, UniProt P12931). Kind of experiment: Inhibition of homologous protein kinase pp60src. The following applies: micromolar concentrations. It counts as biochemical.
The next experiment relates to B16F10 cells. Kind of experiment: Experimental metastasis in mice (B16F10 tail vein injection, pulmonary nodules). It is filed as in vivo, C57BL/6 mice. To be noted: 5 mg/kg IP every other day for 2 weeks, versus vehicle. How it is done: In preparation for tail vein injections, mice were tranquilized with 0.2 mg of acepromazine via i.p. injections. B16F10 cells obtained from ex-vivo culture were injected into the tail vein (10^5 cells/0.2 ml). Animals were treated IP with vehicle (0.36% sodium citrate) or 5 mg/kg of C14-DECA on the day of the tail vein injection and every other day thereafter for a 2-3 week experiment. At the end of the experimental period, the mice were sacrificed by CO2 asphyxiation. The lungs were removed and placed in 10% formalin until the metastatic nodules were counted using a dissecting microscope.

Several values for one entry are separate records, joined by “and”; a condition that tells them apart may be missing. Identical values can stand only once.

Chain of pp60src tyrosine protein kinase (P12931 whole entry): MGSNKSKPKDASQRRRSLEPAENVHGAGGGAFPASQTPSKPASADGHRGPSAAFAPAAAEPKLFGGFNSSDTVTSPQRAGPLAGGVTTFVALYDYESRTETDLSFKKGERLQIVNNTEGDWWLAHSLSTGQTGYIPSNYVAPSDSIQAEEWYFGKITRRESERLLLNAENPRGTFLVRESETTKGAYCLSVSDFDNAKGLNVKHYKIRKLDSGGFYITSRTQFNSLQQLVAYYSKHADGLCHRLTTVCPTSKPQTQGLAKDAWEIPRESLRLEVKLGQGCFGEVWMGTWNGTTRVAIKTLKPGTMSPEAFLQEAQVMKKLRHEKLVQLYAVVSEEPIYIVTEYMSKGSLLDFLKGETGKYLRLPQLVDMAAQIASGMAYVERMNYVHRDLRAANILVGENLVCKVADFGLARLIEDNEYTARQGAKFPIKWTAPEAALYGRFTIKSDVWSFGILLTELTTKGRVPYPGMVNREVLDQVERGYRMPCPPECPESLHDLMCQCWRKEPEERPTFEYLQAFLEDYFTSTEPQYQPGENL

Consider `CCCCCCCCCC[n+]1c(C)cc(N)c2ccccc21` [Compound 2, N-Decyl-4-aminoquinaldinium iodide], for which the IC50 on Recombinant human PKCα was found to be 117 ± 8 µM.
Same read-out and setting: with `Cc1cc(N)c2ccccc2[n+]1CCCCCCCCCCCC[n+]1c(C)cc(N)c2ccccc21` [Compound 1d, 1,1′-(1,12-Dodecanediyl)bis[4-amino-2-methyl]quinolinium, diiodide] the figure was 5 ± 2 µM.
Turning to `Cc1cc(N)c2ccccc2[n+]1CCCCCCCCCCCCCCCC[n+]1c(C)cc(N)c2ccccc21` [Compound 1f, 1,1′-(1,16-Hexadecanediyl)bis[4-amino-2-methyl]quinolinium, diiodide], at Recombinant human PKCα, the “fold stronger inhibitory potency compared with C6-DECA (1a)” value worked out at 20 fold; the “fold stronger inhibitory potency than 1c” value is reported as 4 fold; the IC50 is 2.6 µM and 2.8 µM.
`Cc1cc(N)c2ccccc2[n+]1CCCCCCCC[n+]1c(C)cc(N)c2ccccc21` [Compound 1b]: the IC50 at Recombinant human PKCα worked out at 25 ± 9 µM.
Regarding `Cc1cc(N)c2ccccc2[n+]1CCCCCCCCCC[n+]1c(C)cc(N)c2ccccc21` [Compound 1c, quinolinium, 1,1′-(1,10-decanediyl)bis(4-amino-2-methyldiiodide)], in experiment [1], the “sensitivity of PKA to inhibition” value is recorded as “insensitive”. The “sensitivity of calmodulin-dependent myosin light chain kinase to inhibition” value in experiment [2] is “insensitive”. Besides, the IC50 at Recombinant human PKCα was 11 µM and 11 to 12 µM; in [5] it was 10 to 14 µM. In addition, the inhibition at 0.25 µM on intracellular PKCα came to 35%. Besides, in [3], the “inhibition of cell migration” value is given as 20-30%. In addition, the “loss of cell motility” value in [4] is recorded as 33%. Further, the “sensitivity of pp60src tyrosine protein kinase to inhibition” value in experiment [6] is given as “insensitive”.
`Cc1cc(N)c2ccccc2[n+]1CCCCCC[n+]1c(C)cc(N)c2ccccc21` [Compound 1a]: the IC50 on Recombinant human PKCα was found to be 54 µM.
Regarding `Cc1cc(N)c2ccccc2[n+]1CCCCCCCCCCCCCC[n+]1c(C)cc(N)c2ccccc21` [Compound 1e, 1,1′-(1,14-Tetradecanediyl)bis[4-amino-2-methyl]quinolinium, diiodide], on Recombinant human PKCα, the “fold stronger inhibitory potency compared with C6-DECA (1a)” value was 20 fold; the “fold stronger inhibitory potency than 1c” value came to 4 fold; the IC50 is 2.6 µM and 2.5 µM. The “inhibition of intracellular PKC activity without UV” value at intracellular PKCα (250 nM alone, no UV) is “no inhibitory effect”. Further, the inhibition at 0.25 µM on intracellular PKCα is 40 to 60%. In the experiment on B16F10 cells, this compound gave a fewer pulmonary nodules of 40%. Further, in [3], the “inhibition of cell migration” value is 40-60%. In addition, the “concentration dependence of inhibition of cell migration” value in [3] (range of 0-500 nM) is “dose-dependent”.
As to `Cc1cc(N)c2ccccc2[n+]1C` [Compound 3], the IC50 on Recombinant human PKCα is 3590 ± 510 µM.
